Data as given in paper PMC7997574, “Lead Optimization of Benzoxazolone Carboxamides as Orally Bioavailable and CNS Penetrant Acid Ceramidase Inhibitors” (Journal of Medicinal Chemistry, 2020).
≈ marks a conversion by molar mass, not a printed value.

Experiments:
[1] = Aqueous kinetic solubility assay; type: physicochemical; conditions: PBS, pH 7.4
How it was run: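 Kinetic solubility from 10 mM MeCN stock spiked into PBS pH 7.4 at 250 μM target, shaken 1 h at 25 °C, then centrifuged. Dissolved compound in supernatant quantified by UPLC/MS with UV at 215 nm; mean of ≥2 experiments.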

[2] = biological target: T1, AC (Homo sapiens, UniProt Q13510); test: hAC LC/MS-based activity assay in SH-SY5Y cells; type: cell-based; design: host or cells: SH-SY5Y
T1 sequence (Q13510 22-395): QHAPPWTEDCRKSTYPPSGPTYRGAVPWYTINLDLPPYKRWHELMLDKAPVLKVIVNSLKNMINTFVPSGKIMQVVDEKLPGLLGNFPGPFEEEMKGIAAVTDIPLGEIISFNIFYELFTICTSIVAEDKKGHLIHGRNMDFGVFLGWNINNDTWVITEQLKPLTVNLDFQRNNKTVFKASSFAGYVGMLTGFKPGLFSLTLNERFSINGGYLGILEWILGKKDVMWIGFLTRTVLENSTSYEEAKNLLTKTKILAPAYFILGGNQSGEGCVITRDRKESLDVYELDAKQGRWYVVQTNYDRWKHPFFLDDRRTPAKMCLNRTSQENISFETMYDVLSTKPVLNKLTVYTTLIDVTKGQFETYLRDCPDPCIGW
Description: SH-SY5Y cells were purchased from Sigma Aldrich (Italy) and cultured in Dulbecco’s modified Eagle’s medium (DMEM) containing 10% fetal bovine serum at 37 °C and 5% CO2. Drugs were dissolved in DMSO (10 mM) and diluted in the cell culture medium with reduced serum (1%) for cell treatments.
hAC activity measurement was performed as previously described.[36],[37] Total lysates from cells were diluted in assay buffer (100 mM sodium phosphate, 0.1% Nonidet P-40, 150 mM NaCl, 3 mM DTT, 100 mM sodium citrate, pH 4.5). Reactions were started by the addition of 50 μM N-lauroyl ceramide (Nu-Chek Prep, Elysian, MN) and carried out for 1 h at 37 °C. Reactions were stopped by addition of a mixture of CHCl3/MeOH (2:1) containing 1 nmol of 11-lauroleic acid (Nu-Chek Prep). The organic phases were collected, dried under nitrogen, and analyzed by UPLC/MS (ACQUITY, Waters) in the negative-ion mode monitoring the reaction product (lauric acid, m/z: 199) using 11-lauroleic acid as internal standard. […] The [M–H]^− ion was monitored in the selected-ion monitoring mode (m/z values: lauric acid 199, 11-lauroleic acid 197.35). […]

[3] = biological target: T1, AC; test: Fluorogenic hAC assay on hAC-enriched lysate of HEK293 cells; type: biochemical; design: expressed in transfected cells; conditions: hAC expressed in HEK-293 cells; read-out: hAC IC50 (μM)±SD
How it was run: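 Lysosome-enriched lysate (2 μg protein) from HEK293 cells stably expressing hAC, in 25 mM NaOAc pH 4.5. Pre-incubated 10 min with compound, then incubated 3 h at 37 °C with fluorogenic substrate Rbm14–12 (5 μM final, ~KM). Fluorescence (355/460 nm) read after NaIO4 development; IC50 by nonlinear regression, mean of ≥3 experiments.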

SMILES: CC(C)CNC(=O)n1c(=O)oc2cc(C3CCN(C)CC3)ccc21 [22m, N-Isobutyl-6-(1-methyl-4-piperidyl)-2-oxo-1,3-benzoxazole-3-carboxamide]
- solubility at 1 h [1]: 240 µM (≈ 79.5 µg/mL)
- AC activity in SH-SY5Y cells ([2]; 1, 2.5, 5, 10 μM, 30 min, 1 h, 3 h, 6 h): concentration- (Figure 5A) and time-dependent reduction of AC activity
- persistence of effect on AC activity inhibition and SphL ([2]; SH-SY5Y cells, 10 μM): persisted for up to 6 h
- IC50 [3]: 0.166 ± 0.089 µM
